{"source": "patent US20220364056A1", "about": "“SHORT-CHAIN FATTY ACID PENTANOATE AS ENHANCER FOR CELLULAR THERAPY AND ANTI-TUMOR THERAPY” (PHILIPPS-UNIVERSITÄT MARBURG, priority 2019, published 2022)", "key": {"human CAR T cells": {"tested_on": "human CAR T cells", "experiment": "human ROR1-specific CAR T cells pretreated, then co-cultured with ROR1-expressing K562 cells", "format": "cell-based", "excerpt": "We next investigated the impact of SCFAs on human CD8^+ T lymphocytes and CAR T cells.\n(A) CD8^+ T cells isolated from peripheral blood of healthy donors were differentiated into CTLs in presence or absence of indicated HDACi. Representative contour plots and dot plots indicate the frequency of TNF-α+ and IFN-γ^+ cells. Data points in the graphs represent individual donors (n=4, performed in 4 independent experiments) (B-G) Phenotyping of pentanoate-treated ROR1-specific CD8^+ CAR T cells (CARROR1 T cells). (B) Experimental setup for the functional analysis is shown. (C) The cytokine secretion (IFN-γ and TNF-α) was analysed in supernatants of pentanoate-treated CARROR1 T cells by ELISA. (D) The surface expression of CD25 was measured by flow cytometry. (E) The secretion of IL-2 was detected in supernatants of CARROR1 T cells by ELISA. (F) Proliferation of CARROR1 T cells was determined by CFSE labelling. CARROR1 T cells pre-treated with pentanoate were stained with CFSE and subsequently co-cultured with […] cells in the absence of pentanoate. CD8^+ T cells without the CAR construct were used as mock control cells. (G) The cytolytic activity of CARROR1 T cells was examined by analysis of specific lysis following encounter with luciferase-expressing […] cells. The percentage of lysed target cells was determined in 1 hour intervals (effector-to-target cell (E:T) ratio=2.5:1). Data points shown in the graphs (C-G) represent CARROR1 T cells derived from three different donors. Following pentanoate pre-treatment, the stimulation was mediated by co-culture of CD8^+ CARROR1 T cells with ROR1-expressing K652 ([…]) cells in the absence of pentanoate."}, "mTOR": {"tested_on": "mTOR", "experiment": "phosphorylation of mTOR and S6 in human CTLs", "format": "cell-based", "conditions": "three days", "method": "(A and B) CTLs were cultured in medium containing 1.0% FCS and treated with pentanoate (2.5 mM) for three days. Representative histogram plots and bar graphs indicate the phoshorylated levels of mTOR (A) and S6 ribosomal protein (B), respectively (n=3 pooled from three independent experiments). (C and D) Human CTLs were cultured in medium containing 1.0% serum and treated with indicated HDACi for three days. Representative histogram plots and bar graphs indicate the phoshorylated levels of mTOR (C) and S6 ribosomal protein (D), respectively (data points represent four individual healthy donors) (E) Measurement of extracellular acidification rate (ECAR) for in vitro generated murine CTLs cultured with or without 2.5 mM pentanoate for three days. ECAR was measured under basal conditions and in response to glucose (10 mM), oligomycin (2 μM), and 2-deoxy-glucose (2-DG, 100 mM). One of three independent experiments is shown."}, "[1]": {"tested_on": "promoter region of Ifnγ, Tbx21 and Eomes", "experiment": "pan-H4Ac ChIP at CTL-characteristic loci", "format": "cell-based, mice", "conditions": "24 hours of treatment", "method": "(A) Experimental design for the treatment of CTLs with the water-soluble fraction of intestinal content derived from SPF or GF mice. (B and C) Frequencies of IFN-γ- and TNF-α-producing CTLs treated with the extract from luminal content derived from indicated organs. Representative results of two experiments are shown (n=3). (D) ELISA was performed to measure the secretion of TNF-α by CLTs treated as shown in (A). (E) Quantitative measurement of total SCFA amounts in fecal samples of SPF and GF mice (n=5). (F and G) The percentage of IFN-γ^+ TNF-α^+ CTLs treated with the indicated SCFAs for three days (n=3, one of three independent experiments is shown). (H) The secretion of TNF-α from CTLs treated with SCFAs was determined by ELISA (n=3, one of two independent experiments is shown). (I) The fluorogenic HDAC assay was applied to measure the HDAC inhibitory activity of SCFAs on CTLs. The value for unstimulated CTLs was arbitrarily set to 1.0. Four independent experiments were performed. (J and K) Representative contour plots (J) and bar graphs (K) showing the frequency of IFN-γ+ and TNF-α+ cells after pentanoate (2 mM) or VPA (0.5 mM) administration. Three similar experiments were performed. (L and M) The frequency of Eomes- and T-bet-expressing CTLs treated with pentanoate (2 mM) or VPA (0.5 mM) for three days was analyzed by flow cytometry (n=4). […]"}, "[2]": {"tested_on": "ROR1-expressing Panc02 pancreatic tumor cells (PancROR1)", "experiment": "transfer of pretreated ROR1-specific CAR T cells into mice bearing s.c. PancROR1 tumors", "format": "in vivo"}, "histones H3 and H4": {"tested_on": "histones H3 and H4", "experiment": "Western blot of H3Ac and H4Ac in CD8+ T cells", "format": "cell-based, murine", "conditions": "SCFAs for 3 days", "method": "Representative histogram plots (A) and bar graphs (B) are showing the frequency of Annexin V^+ cells. Three similar experiments were performed. (C) Representative effector molecule staining of CD8^+ T cells polarized under suboptimal CTL-inducing conditions, treated with pentanoate or TSA (10 nM Sigma-Aldrich) in presence of 2-DG (1 mM, Sigma-Aldrich) or rapamycin (100 nM, Sigma-Aldrich) for 3 days. Three independent experiments were performed. (D) Western blot analysis of H3Ac and H4Ac in CD8^+ T cells treated with SCFAs for 3 days. (E) Pan-H4Ac ChIP qPCR analysis for Tbx21 promoter accessibility in pentanoate-treated CTLs. Data are from pooled chromatin of three mice. (F and G) CD8^+ T cells isolated from WT and Tbx21^−/− mice were polarized under suboptimal CTL-inducing conditions in presence of increasing pentanoate concentrations. Representative contour plots (F) and bar graphs (G) show the frequency of IFN-γ+ and IL-17A^+ cells. Two similar experiments were performed."}}}
{"smiles": "CCCCC(=O)O", "note": "[pentanoate]", "values": [{"measurement": "proliferation of CAR T cells", "setting": "human CAR T cells; CFSE labelling, vs control CAR T cells", "value": "proliferated stronger"}, {"measurement": "expression of CD25", "setting": "human CAR T cells; pretreated 4 days", "value": "upregulated"}, {"measurement": "production of IFN-γ and TNF-α", "setting": "human CAR T cells; pretreated 4 days, ELISA", "value": "elevated the production"}, {"measurement": "secretion of IL-2", "setting": "human CAR T cells; pretreated 4 days, ELISA", "value": "upregulated"}, {"measurement": "cytolytic activity", "setting": "human CAR T cells; specific lysis, E:T ratio 2.5:1", "value": "superior cytolytic activity"}, {"measurement": "phosphorylation level of S6 ribosomal protein", "setting": "mTOR", "value": "elevated the phosphorylation levels"}, {"measurement": "phosphorylation level of mTOR", "setting": "mTOR", "value": "elevated the phosphorylation levels"}, {"measurement": "H4 acetylation at the promoter region of Ifnγ, Tbx21 and Eomes", "setting": "[1]", "value": "enhance H4 acetylation"}, {"measurement": "tumor volume and weight", "setting": "[2]; day 10 following administration of pentanoate-treated CAR T cells", "value": "significantly diminished"}, {"measurement": "frequency and number of IFN-γ+TNF-α+ CAR T cells in tumors", "setting": "[2]; vs control CAR T lymphocytes", "value": "elevated frequency and number"}, {"measurement": "acetylation of histones H3 and H4", "setting": "histones H3 and H4", "value": "increased acetylation"}]}
